# Measurements from patent publication US20250313572A1, “MACROCYCLIC MCL-1 INHIBITORS AND METHODS OF USE” (AbbVie Inc., priority 2017, published 2025).
# Like-named read-outs stand apart in the source and are kept apart here.
# Assays:
# [1] = test system: AMO-1 human multiple myeloma tumor cell line; assay: AMO-1 cell viability assay (CellTiter-Glo, 24 hours); type: cell-based
# [2] = test system: NCI-H929 human multiple myeloma tumor cell line; assay: NCI-H929 cell viability assay (CellTiter-Glo, 24 hours); type: cell-based
# [3] = target: GST-MCL-1 (Homo sapiens, UniProt Q07820); assay: TR-FRET MCL-1 binding assay (competition with probe F-Bak)
# Chain of GST-MCL-1 (Q07820 whole entry): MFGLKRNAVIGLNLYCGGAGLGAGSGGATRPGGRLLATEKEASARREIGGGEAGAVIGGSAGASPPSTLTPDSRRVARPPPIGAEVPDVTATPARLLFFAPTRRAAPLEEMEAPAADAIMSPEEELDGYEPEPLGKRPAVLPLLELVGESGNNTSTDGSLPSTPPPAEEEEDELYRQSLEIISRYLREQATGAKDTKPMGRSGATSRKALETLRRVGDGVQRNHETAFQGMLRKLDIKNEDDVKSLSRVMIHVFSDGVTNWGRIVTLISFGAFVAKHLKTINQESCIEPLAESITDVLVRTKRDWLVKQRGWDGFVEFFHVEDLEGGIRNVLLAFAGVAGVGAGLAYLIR
# In short: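 Test compounds, 11 three-fold dilutions from 25 μM final, incubated 2 hours at room temperature with GST-MCL-1, F-Bak probe and Tb-anti-GST antibody. TR-FRET read at 340/35 nm excitation with 520/525 and 495/510 nm emission. Run without human serum and with 10% HS.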
# [4] = MCL-1 Binding Ki (nM, 10% HS), in the presence of 10% HS (human serum)
# [5] = without HS, read-out: MCL-1 Binding Ki
# [6] = Homo sapiens, AMO1, 24 h, read-out: AMO-1 Viability IC50 (μM, 10% FBS), 10% FBS, 24 hours of compound treatment
# [7] = Homo sapiens, NCI-H929, 24 h, read-out: H929 Viability IC50 (μM, 10% FBS), 10% FBS, 24 hours of compound treatment
SMILES,"IC50 ([1]; read-out: AMO-1 Viability IC50 (μM, 10% FBS), 10% FBS, 24 hours of compound treatment) [µM]","IC50 ([2]; read-out: H929 Viability IC50 (μM, 10% FBS), 10% FBS, 24 hours of compound treatment) [µM]","Ki [3, 4] [nM]","Ki [3, 5] [nM]","IC50 [1, 6] [µM]","IC50 [2, 7] [µM]"
"COCCOCCOCCOCC1(F)CC=C(c2nccc(COc3ccc4cc3C[C@H](C(=O)O)Oc3ncnc5sc(-c6ccc(F)cc6)c(c35)-c3c(C)c(Cl)c(c(Cl)c3C)O[C@H](CN3CCN(C)CC3)CO4)n2)CC1 (single isomer, unassigned) [Example 111, (7R,16R)-19,23-dichloro-1-(4-fluorophenyl)-10-({2-[(4R*)-4-fluoro-4-(2,5,8,11-tetraoxadodecan-1-yl)cyclohex-1-en-1-yl]pyrimidin-4-yl}methoxy)-20,22-dimethyl-16-[(4-methylpiperazin-1-yl)methyl]-7,8,15,16-tetrahydro-18,21-etheno-13,9-(metheno)-6,14,17-trioxa-2-thia-3,5-diazacyclononadeca[1,2,3-cd]indene-7-carboxylic Acid]",0.000161,0.000298,0.101,0.014,,
"Cc1c2ccc(c1Cl)O[C@H](CN1CCN(C)CC1)COc1ccc(OCc3ccnc([C@H]4CCCN4C(=O)CCP(C)(C)=O)n3)c(c1)C[C@H](C(=O)O)Oc1ncnc3sc(-c4ccc(F)cc4)c-2c13 [Example 55, (7R,16R)-19-chloro-10-[(2-{(2R)-1-[3-(dimethylphosphoryl)propanoyl]pyrrolidin-2-yl}pyrimidin-4-yl)methoxy]-1-(4-fluorophenyl)-20-methyl-16-[(4-methylpiperazin-1-yl)methyl]-7,8,15,16-tetrahydro-18,21-etheno-13,9-(metheno)-6,14,17-trioxa-2-thia-3,5-diazacyclononadeca[1,2,3-cd]indene-7-carboxylic Acid]",,,92.6,38.2,> 1,> 1
"CO[C@H]1O[C@H](COc2ccc(-c3nccc(COc4ccc5cc4C[C@H](C(=O)O)Oc4ncnc6sc(-c7ccc(F)cc7)c(c46)-c4ccc(c(Cl)c4C)O[C@H](CN4CCN(C)CC4)CO5)n3)cc2)[C@@H](O)[C@H](O)[C@@H]1O [Example 12, methyl 6-O-{4-[4-({[(7R,16R,21S)-7-carboxy-19-chloro-1-(4-fluorophenyl)-20-methyl-16-[(4-methylpiperazin-1-yl)methyl]-7,8,15,16-tetrahydro-18,21-etheno-13,9-(metheno)-6,14,17-trioxa-2-thia-3,5-diazacyclononadeca[1,2,3-cd]inden-10-yl]oxy}methyl)pyrimidin-2-yl]phenyl}-a-D-mannopyranoside]",,,0.227,0.603,0.0187,0.0316
"COCCOCCOCCOCC1(c2nccc(COc3ccc4cc3C[C@H](C(=O)O)Oc3ncnc5sc(-c6ccc(F)cc6)c(c35)-c3c(C)c(Cl)c(c(Cl)c3C)O[C@H](CN3CCN(C)CC3)CO4)n2)CC1 [Example 29, (7R,16R)-19,23-dichloro-1-(4-fluorophenyl)-20,22-dimethyl-16-[(4-methylpiperazin-1-yl)methyl]-10-({2-[1-(2,5,8,11-tetraoxadodecan-1-yl)cyclopropyl]pyrimidin-4-yl}methoxy)-7,8,15,16-tetrahydro-18,21-etheno-13,9-(metheno)-6,14,17-trioxa-2-thia-3,5-diazacyclononadeca[1,2,3-cd]indene-7-carboxylic Acid]",,,1.21,0.204,0.000894,0.000942
"Cc1c(Cl)c2c(Cl)c(C)c1-c1c(-c3ccc(F)cc3)sc3ncnc(c13)O[C@@H](C(=O)O)Cc1cc(ccc1OCc1ccnc(-c3ccc(OCCN4CC5CCC(C4)O5)cc3)n1)OC[C@@H](CN1CCN(C)CC1)O2 [Example 170, (7R,16R)-19,23-dichloro-1-(4-fluorophenyl)-20,22-dimethyl-16-[(4-methylpiperazin-1-yl)methyl]-10-[(2-{4-[2-(8-oxa-3-azabicyclo[3.2.1]octan-3-yl)ethoxy]phenyl}pyrimidin-4-yl)methoxy]-7,8,15,16-tetrahydro-18,21-etheno-13,9-(metheno)-6,14,17-trioxa-2-thia-3,5-diazacyclononadeca[1,2,3-cd]indene-7-carboxylic Acid]",,,1.85,0.042,0.000646,0.00278
"COCCOCCOCCOC[C@]1(F)CC[C@@H](c2nccc(COc3ccc4cc3C[C@H](C(=O)O)Oc3ncnc5sc(-c6ccc(F)cc6)c(c35)-c3c(C)c(Cl)c(c(Cl)c3C)O[C@H](CN3CCN(C)CC3)CO4)n2)CC1 [Example 118, (7R,16R)-19,23-dichloro-1-(4-fluorophenyl)-10-({2-[(1s,4s)-4-fluoro-4-(2,5,8,11-tetraoxadodecan-1-yl)cyclohexyl]pyrimidin-4-yl}methoxy)-20,22-dimethyl-16-[(4-methylpiperazin-1-yl)methyl]-7,8,15,16-tetrahydro-18,21-etheno-13,9-(metheno)-6,14,17-trioxa-2-thia-3,5-diazacyclononadeca[1,2,3-cd]indene-7-carboxylic Acid]",,,27.3,1.99,0.000247,0.000396
"COCCOCCOCCOCCO[C@H]1CC[C@H](c2nccc(COc3ccc4cc3C[C@H](C(=O)O)Oc3ncnc5sc(-c6ccc(F)cc6)c(c35)-c3c(C)c(Cl)c(c(Cl)c3C)O[C@H](CN3CCN(C)CC3)CO4)n2)CC1 [Example 69, (7R,16R)-19,23-dichloro-1-(4-fluorophenyl)-20,22-dimethyl-16-[(4-methylpiperazin-1-yl)methyl]-10-[(2-{(1r,4r)-4-[(2,5,8,11-tetraoxatridecan-13-yl)oxy]cyclohexyl}pyrimidin-4-yl)methoxy]-7,8,15,16-tetrahydro-18,21-etheno-13,9-(metheno)-6,14,17-trioxa-2-thia-3,5-diazacyclononadeca[1,2,3-cd]indene-7-carboxylic Acid]",,,0.053,0.012,0.000302,0.000615
"CO[C@H]1O[C@H](COc2ccc(-c3nccc(COc4ccc5cc4C[C@H](C(=O)O)Oc4ncnc6sc(-c7ccc(F)cc7)c(c46)-c4ccc(c(Cl)c4C)CN(CCN4CCN(C)CC4)C5)n3)cc2)[C@@H](O)[C@H](O)[C@H]1O [Example 9, methyl 6-O-{4-[4-({[(7R,20S)-7-carboxy-18-chloro-1-(4-fluorophenyl)-19-methyl-15-[2-(4-methylpiperazin-1-yl)ethyl]-7,8,15,16-tetrahydro-14H-17,20-etheno-13,9-(metheno)-6-oxa-2-thia-3,5,15-triazacyclooctadeca[1,2,3-cd]inden-10-yl]oxy}methyl)pyrimidin-2-yl]phenyl}-a-D-glucopyranoside]",,,0.296,0.048,0.732,> 1
"COCCOCCOCCOCC1(c2nccc(COc3ccc4cc3C[C@H](C(=O)O)Oc3ncnc5sc(-c6ccc(F)cc6)c(c35)-c3c(C)c(Cl)c(c(Cl)c3C)O[C@H](CN3CCN(C)CC3)CO4)n2)CCC1 [Example 45, (7R,16R)-19,23-dichloro-1-(4-fluorophenyl)-20,22-dimethyl-16-[(4-methylpiperazin-1-yl)methyl]-10-({2-[1-(2,5,8,11-tetraoxadodecan-1-yl)cyclobutyl]pyrimidin-4-yl}methoxy)-7,8,15,16-tetrahydro-18,21-etheno-13,9-(metheno)-6,14,17-trioxa-2-thia-3,5-diazacyclononadeca[1,2,3-cd]indene-7-carboxylic Acid]",,,0.343,0.094,0.000461,0.000598
"COCCOCCOCCOc1ccc(-c2nccc(COc3ccc4cc3C[C@H](C(=O)O)Oc3ncnc5sc(C6CCCCC6)c(c35)-c3c(C)c(Cl)c(c(Cl)c3C)O[C@H](CN3CCN(C)CC3)CO4)n2)cc1 [Example 90, (7R,16R)-19,23-dichloro-1-cyclohexyl-10-{[2-(4-{2-[2-(2-methoxyethoxy)ethoxy]ethoxy}phenyl)pyrimidin-4-yl]methoxy}-20,22-dimethyl-16-[(4-methylpiperazin-1-yl)methyl]-7,8,15,16-tetrahydro-18,21-etheno-13,9-(metheno)-6,14,17-trioxa-2-thia-3,5-diazacyclononadeca[1,2,3-cd]indene-7-carboxylic Acid]",,,3.41,0.044,0.000183,0.000787
"COCCOCCOCCOCCOC1(c2nccc(COc3ccc4cc3C[C@H](C(=O)O)Oc3ncnc5sc(-c6ccc(F)cc6)c(c35)-c3c(C)c(Cl)c(c(Cl)c3C)O[C@H](CN3CCN(C)CC3)CO4)n2)CCC1 [Example 64, (7R,16R)-19,23-dichloro-1-(4-fluorophenyl)-20,22-dimethyl-16-[(4-methylpiperazin-1-yl)methyl]-10-[(2-{1-[(2,5,8,11-tetraoxatridecan-13-yl)oxy]cyclobutyl}pyrimidin-4-yl)methoxy]-7,8,15,16-tetrahydro-18,21-etheno-9,13-(metheno)-6,14,17-trioxa-2-thia-3,5-diazacyclononadeca[1,2,3-cd]indene-7-carboxylic Acid]",,,0.167,0.038,0.00163,0.00243
"COCCOCCOCCOCCOCCOCC1(c2nccc(COc3ccc4cc3C[C@H](C(=O)O)Oc3ncnc5sc(-c6ccc(F)cc6)c(c35)-c3c(C)c(Cl)c(c(Cl)c3C)O[C@H](CN3CCN(C)CC3)CO4)n2)CCC1 [Example 59, (7R,16R)-19,23-dichloro-1-(4-fluorophenyl)-10-({2-[1-(2,5,8,11,14,17-hexaoxaoctadecan-1-yl)cyclobutyl]pyrimidin-4-yl}methoxy)-20,22-dimethyl-16-[(4-methylpiperazin-1-yl)methyl]-7,8,15,16-tetrahydro-18,21-etheno-13,9-(metheno)-6,14,17-trioxa-2-thia-3,5-diazacyclononadeca[1,2,3-cd]indene-7-carboxylic Acid]",,,0.122,0.047,0.000686,0.000848
